This note sets out measurements from PMC11207335, “In Vitro Metabolism and Transport Characteristics of Zastaprazan” (Pharmaceutics, 2024).

The target of data set [1] is T1, BCRP (Homo sapiens, UniProt Q9UNQ0).
T1 construct: host or cells: LLC-PK1 (porcine kidney cells)
T1 sequence (Q9UNQ0 1-655): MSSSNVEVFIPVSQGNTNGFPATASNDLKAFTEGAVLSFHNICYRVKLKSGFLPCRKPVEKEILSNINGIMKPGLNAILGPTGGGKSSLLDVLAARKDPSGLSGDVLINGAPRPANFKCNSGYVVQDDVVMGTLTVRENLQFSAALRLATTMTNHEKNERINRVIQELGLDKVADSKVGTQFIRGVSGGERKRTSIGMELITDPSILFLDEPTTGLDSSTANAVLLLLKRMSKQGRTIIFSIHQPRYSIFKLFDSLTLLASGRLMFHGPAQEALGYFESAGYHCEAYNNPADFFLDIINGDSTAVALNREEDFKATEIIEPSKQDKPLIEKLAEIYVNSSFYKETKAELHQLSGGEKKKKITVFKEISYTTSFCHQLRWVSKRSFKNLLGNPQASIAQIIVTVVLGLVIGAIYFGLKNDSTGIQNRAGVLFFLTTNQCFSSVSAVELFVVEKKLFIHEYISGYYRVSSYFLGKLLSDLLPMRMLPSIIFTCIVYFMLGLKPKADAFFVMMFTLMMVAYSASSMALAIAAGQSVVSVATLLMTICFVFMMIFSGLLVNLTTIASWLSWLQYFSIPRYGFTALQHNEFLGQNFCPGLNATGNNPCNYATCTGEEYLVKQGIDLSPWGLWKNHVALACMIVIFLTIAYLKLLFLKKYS
The data set is described as follows: Permeability in LLC-PK1-BCRP cells. The data set is classed as in vitro ADME. Conditions: for Substrate: BCRP. The protocol: LLC-PK1-P-gp or BCRP cells were seeded on collagen-coated 24-transwell membranes at a density of 2.5 × 10^5 cells/mL and maintained at 37 °C in a humidified atmosphere with 5% CO2/95% air for 5 days in Medium 199 supplemented with 10% […], 50 μg/mL of gentamycin, and 50 μg/mL of hygromycin. The culture medium was replaced every other day. On the day of the experiment, the growth medium was discarded, and the attached cells were washed with prewarmed HBSS (pH 7.4) and preincubated with HBSS for 20 min at 37 °C. […] Aliquots (0.1 mL) in the apical side were transferred to clean tubes every 15 min for 1 h and replaced with an equal volume of fresh HBSS.
LLC-PK1-P-gp or BCRP cells were seeded on collagen-coated 24-transwell membranes at a density of 2.5 × 10^5 cells/mL and cultured for 5 days. The growth medium was discarded on the day of the experiment, and the attached cells were washed with prewarmed HBSS (pH 7.4) and preincubated with HBSS for 20 min at 37 °C. […] Aliquots (0.1 mL) in the apical side were transferred to clean tubes every 15 min for 1 h and replaced with an equal volume of fresh HBSS. Aliquots (30 μL) of each sample were vortex-mixed with 90 μL of IS solution for 1 min, and then centrifugation was performed at 13,500 rpm at 4 °C for 5 min. Aliquots (5 μL) of the supernatant were injected into the LC-MS/MS for analysis.
The permeability (Papp) was calculated from the following equation [23, 24]: Papp(cm/s)=transport ratenmol/s/JP−1366 or M1 concentration (μM)×surface area of membrane (cm^2)

For data set [2], the system named is HEK293-mock cells. The data set is described as follows: Uptake into HEK293-mock cells. Conditions: 6 μM.
For data set [3], the target named is T2, OAT1 (Homo sapiens, UniProt Q4U2R8).
T2 sequence (Q4U2R8 1-563): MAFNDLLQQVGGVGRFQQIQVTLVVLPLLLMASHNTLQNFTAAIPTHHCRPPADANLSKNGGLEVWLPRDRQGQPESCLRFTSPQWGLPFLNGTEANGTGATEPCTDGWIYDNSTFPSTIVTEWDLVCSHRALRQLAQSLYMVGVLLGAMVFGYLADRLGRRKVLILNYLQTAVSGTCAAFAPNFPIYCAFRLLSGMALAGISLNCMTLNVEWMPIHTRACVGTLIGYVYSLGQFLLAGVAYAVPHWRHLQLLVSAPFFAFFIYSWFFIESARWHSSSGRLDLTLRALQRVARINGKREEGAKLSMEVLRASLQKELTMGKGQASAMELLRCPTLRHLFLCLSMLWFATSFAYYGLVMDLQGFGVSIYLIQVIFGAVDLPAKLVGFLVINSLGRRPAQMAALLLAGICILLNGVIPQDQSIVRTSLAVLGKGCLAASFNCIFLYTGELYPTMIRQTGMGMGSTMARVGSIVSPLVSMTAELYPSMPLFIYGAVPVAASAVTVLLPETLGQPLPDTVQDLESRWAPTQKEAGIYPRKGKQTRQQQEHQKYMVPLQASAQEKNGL
The data set is described as follows: Uptake into HEK293 cells expressing OAT1. The settings on record: for Uptake Rate / Fold-Change: 6 μM; for Substrate: OAT1; for Fold-Change: vs HEK293-mock.

Data set [4] concerns the target MATE2K (Homo sapiens, UniProt Q86VL8). The data set is described as follows: Uptake into HEK293 cells expressing MATE2K. Conditions: for Uptake Rate / Fold-Change: 6 μM, HEK293-MATE2K; for Substrate: MATE2K; for Fold-Change: vs HEK293-mock.
Setting [5] is: pig, pH 7.4, with Ko134 1 μM, LLC-PK1-BCRP, Ko134 1 μM.
Setting [6] is: pig, pH 7.4, LLC-PK1-BCRP, Control.

Usually Papp A→B stands for the apparent permeability from the apical to the basolateral side of a cell layer. A low value points to slow passage. The term Papp B→A denotes the apparent permeability from the basolateral to the apical side of a cell layer.

Chain of MATE2K (Q86VL8 1-566 isoform Q86VL8-3): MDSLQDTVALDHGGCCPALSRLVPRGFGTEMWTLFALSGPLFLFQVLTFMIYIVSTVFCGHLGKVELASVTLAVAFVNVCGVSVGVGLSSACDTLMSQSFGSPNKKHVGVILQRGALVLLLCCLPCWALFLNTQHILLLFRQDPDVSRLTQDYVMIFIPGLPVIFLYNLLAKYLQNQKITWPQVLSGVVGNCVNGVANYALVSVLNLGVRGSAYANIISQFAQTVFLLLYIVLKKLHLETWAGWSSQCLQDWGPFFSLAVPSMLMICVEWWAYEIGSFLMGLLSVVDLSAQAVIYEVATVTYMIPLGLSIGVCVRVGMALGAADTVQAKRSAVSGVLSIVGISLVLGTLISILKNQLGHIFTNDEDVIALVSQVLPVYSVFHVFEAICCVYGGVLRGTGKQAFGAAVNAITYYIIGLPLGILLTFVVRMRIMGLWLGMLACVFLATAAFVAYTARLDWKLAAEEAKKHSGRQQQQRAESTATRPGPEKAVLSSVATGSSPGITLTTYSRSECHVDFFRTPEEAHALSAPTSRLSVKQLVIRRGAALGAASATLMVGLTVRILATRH

Consider `Cc1cccc(C)c1CNc1cc(C(=O)N2CCC2)cn2c(C)c(C)nc12` [JP-1366, 1-azetidinyl(8-(((2,6-dimethylphenyl)methyl)amino)-2,3-dimethylimidazo(1,2-a)pyridin-6-yl)methanone], for which the Substrate result in data set [1], in data set [3] and in data set [4] was “No” each time. Besides, the Papp A→B at 1 h, 4 µM in data set [1] (setting [5]) is 13.6 ± 0.54 ×10⁻⁶ cm/s; in data set [1] (setting [6]), 14.8 ± 1.23 ×10⁻⁶ cm/s. Moreover, the Papp B→A at 1 h, 4 µM in data set [1] (setting [5]) was determined as 22.6 ± 0.47 ×10⁻⁶ cm/s; in data set [1] (setting [6]), 20.5 ± 3.95 ×10⁻⁶ cm/s. Moreover, the “Uptake Rate” value in data set [2] (cimetidine 100 μM) is listed as 55.35 ± 2.24 pmol/min/10^5 Cells; in data set [2] (control) it was 51.53 ± 3.16 pmol/min/10^5 Cells; in data set [2] (probenecid 20 μM) it was 54.22 ± 1.90 pmol/min/10^5 Cells; in data set [2] (rifampin 20 μM) it was 57.80 ± 0.89 pmol/min/10^5 Cells; in data set [3] (HEK293-OAT1, control), 68.04 ± 2.96 pmol/min/10^5 Cells; in data set [3] (HEK293-OAT1, probenecid 20 μM), 61.04 ± 5.29 pmol/min/10^5 Cells. Further, the figures for the “Uptake Rate” value in data set [4] (cimetidine 100 μM) and in data set [4] (control) were 72.81 ± 3.33 pmol/min/10^5 Cells and 59.19 ± 3.66 pmol/min/10^5 Cells, respectively.

As to `Cc1cccc(CO)c1CNc1cc(C(=O)N2CCC2)cn2c(C)c(C)nc12` [M1, azetidin-1-yl(8-((2-(hydroxymethyl)-6-methyl-benzyl)amino)-2,3-dimethylimidazo[1,2-a]pyridin-6-yl)methanone], the Substrate entry in data set [1], in data set [3] and in data set [4] was “No” throughout. For the same compound, the Papp A→B at 1 h, 4 µM worked out at 32 ± 2.84 ×10⁻⁶ cm/s in data set [1] (setting [5]) and 31.7 ± 3.39 ×10⁻⁶ cm/s in data set [1] (setting [6]). For the same compound, the Papp B→A at 1 h, 4 µM in data set [1] (setting [5]) came out at 47.3 ± 1.39 ×10⁻⁶ cm/s; in data set [1] (setting [6]), 33.8 ± 3.45 ×10⁻⁶ cm/s. The efflux ratio at 1 h in data set [1] (pig, pH 7.4, LLC-PK1-BCRP, concentration range of 0.3–85 μM, read-out: ER) fell in the range of 1.1 to 1.7. In addition, the Fold-Change in data set [2] (cimetidine 100 μM) came out at 1.1; in data set [2] (control), 1.0; in data set [2] (probenecid 20 μM), 1.1; in data set [2] (rifampin 20 μM) it was 1.1; in data set [3] (HEK293-OAT1, control), 1.3; in data set [3] (HEK293-OAT1, probenecid 20 μM) it was 1.2. Further, the Fold-Change in data set [4] (cimetidine 100 μM) stood at 1.4; in data set [4] (control) it was 1.1. For the same compound, the “Uptake Rate” value was determined as 55.35 ± 2.24 pmol/min/10^5 Cells in data set [2] (cimetidine 100 μM); 51.53 ± 3.16 pmol/min/10^5 Cells in data set [2] (control); 54.22 ± 1.90 pmol/min/10^5 Cells in data set [2] (probenecid 20 μM); 57.80 ± 0.89 pmol/min/10^5 Cells in data set [2] (rifampin 20 μM); 68.04 ± 2.96 pmol/min/10^5 Cells in data set [3] (HEK293-OAT1, control); 61.04 ± 5.29 pmol/min/10^5 Cells in data set [3] (HEK293-OAT1, probenecid 20 μM). Also, the results for the “Uptake Rate” value in data set [4] (cimetidine 100 μM) and in data set [4] (control) were 72.81 ± 3.33 pmol/min/10^5 Cells and 59.19 ± 3.66 pmol/min/10^5 Cells, respectively.
